Measured values as given in US20010018416A1, “COMPOSITIONS AND METHODS FOR TREATING HEPATITIS-C” (priority 1997, published 2001).

Legend:
hepatitis-C = tested on: hepatitis-C
Method: Twelve patients in the active stage of hepatitis-C were selected for this study. The study group consisted of eight females and four males between 36 and 57 years of age. […] The control powder contained vegetable oil, corn syrup solids, and lactose. Quality control (to check for product identity and purity) was done by HPLC through comparisons with those obtained from reference samples from Sigma Corp, St Louis, Mo. The GMDP powder was diluted with 10 ml sterile distilled water. The daily GMDP dosage ranged from 0.1-0.5 mg/kg of the patient's body weight for blastolysine 80-120 mg/kg of body weight. Statistical analysis were done with Epi-Info Statistical Package (Center for Disease Control and Prevention, Atlanta, Ga.) with two way comparison by the Fischer's exact test (two tailed). Eleven patients were orally administered GMDP at dosage of […] daily in a water solution for one or two months. One patient with 44000×1000 viral load and early liver cirrhosis was treated for one year. GMDP at dosage of 0.1-0.5 mg/kg daily was administered to 11 patients.

[1] = tested on: human CD4+ lymphocytes taken from AIDS patient; assay: LDH assay of the inhibition of Fas antigen mediated apoptosis in vitro; type: cell-based; conditions: LDH release 16 h after anti-Fas antibodies, FIG. 3
Method: The following cell lines were used for this assay: A549 (human lung carcinoma cells), A431 (human […]), L929 (mouse […]), human CD4+ lymphocytes taken from AIDS patient. All cells are commercially available from ATCC. They were maintained in DME medium supplemented with 10% FCS and glutamine in CO2 incubator. Lactate dehydrogenase (LDH) assay Cells were seeded into 35 mm Petri dishes and grown up to 70% confluency. Then they were treated with human recombinant antibodies against Fas antigen (gift from […] Co.) in the concentration indicated in the figures. In cases where the cells were not spontaneously sensitive to Fas ligand induced cytolysis, cycloheximide (CHX), a powerful blocker of the protein synthesis, which sensitizes the cells to anti Fas antibodies action, was used in concentration of 25 μg/ml. Sixteen hours after treatment, 20 μl samples of the cultured supernatants were removed and assayed for LDH release by the Cytotox 96 assay (Promega Biotech., Madison, Wis.)in accordance with the manufacturer's instructions. This methodology is based upon the fact that when cells are dying they are releasing LDH. […] These samples were assayed in triplicate on an EL340 Microplate reader (Bic) Tech Instruments Inc.) at 490 nm wave length. The average of these three readings was plated on the graphs (FIGS. 1, 2, 3 and 4).

[2] = tested on: A 549 cells (human small cell lung carcinoma); assay: DNA fragmentation test (LDH released by dying cells measured by optic density) after TNF-α; type: cell-based; conditions: A549; TNF-α 10 nanograms/ml; GMDP 1 and 2 μg/ml; 8 hours
Method: The LDH analysis procedure is described above. A 549 cells (human small cell lung carcinoma) were utilized for the DNA fragmentation test and treated with GMDP 1 ug/ml and with GMDP 2 ug/ml for 2 hours and then treated with human TNF-α (Sigma Corp., St. Louis, Mo.). FIGS. 8 and 9 are plots of the optical density measurements of two different scans each with six samples utilizing the DNA fragmentation procedure. […] TNF-α levels were 10 nanograms/ml for all samples, while samples 1-4 contained no GMDP, sample 5 contained 1 μg/ml GMDP and sample 6 contained 2 μg/ml GMDP. Sample 1 was analyzed after 0 hours, sample 2 analyzed after 2 hours, sample 3 analyzed after 4 hours, while samples 4, 5, and 6 were analyzed after 8 hours. Accordingly, only samples 5 and 6 from each scan measure cell protection after 8 hours. […] In other words, the higher purity GMDP drastically increases cell protection and antiapoptotic activity.

SMILES	reduction in bilirubin concentration (hepatitis-C; 2 patients with elevated level)	decrease of LDH and GGTP activity (hepatitis-C; 7 patients who had elevated level)	effect on AST and APT activity (hepatitis-C; 7 patients who had elevated level of these enzymes)	fatigue and nausea (hepatitis-C; after first week, all patients who had these symptoms)	serum HPC RNA test, reduction of viral load (hepatitis-C; after the first three weeks of treatment, all patients)	overall clinical conditions (hepatitis-C; all patients treated, follow up period)	toxic effects (hepatitis-C; human, in vivo, po)	free iron test (hepatitis-C; one patient with high levels of free iron)	effect on alkaline phosphates activity (hepatitis-C; one patient with previously elevated level)	follow-up liver biopsy, pathology examination (hepatitis-C; one patient, end of one year treatment)	follow-up liver biopsy (hepatitis-C; two patients with diagnosed mild necrosis and fibrosis)	maximum inhibition of Fas Ag antibodies mediated cell lysis (reduction) [1]	optical density relative to cells exposed to GMDP of about 97.3% purity [2]
CC(=O)NC1C(OC2C(CO)OC(O)C(NC(C)=O)C2OC(C)C(=O)NC(C)C(=O)NC(CCC(=O)O)C(N)=O)OC(CO)C(O)C1O [GMDP, N-acetyl-D-glucosaminyl-(β1-4)-N-acetylmuramyl-L-alanyl-D-isoglutamine]	19%(3)	34% (6)	beneficial effect	completely subsided	two-three fold reduction	improved	No patients experienced toxic effects	full normalization	Lowering effect	no sign of previous necrosis and cirrhosis	no necrosis or fibrotic change was detectable	72%	–
CC(=O)NC1C(OC2C(CO)OC(O)C(NC(C)=O)C2OC(C)C(=O)NC(C)C(=O)NC(CCC(=O)O)C(N)=O)OC(CO)C(O)C1O [GMDP of about 98.3% purity, N-acetyl-D-glucosaminyl-(β1-4)-N-acetylmuramyl-L-alanyl-D-isoglutamine]	–	–	–	–	–	–	–	–	–	–	–	–	less than ½
